From publication PMC2760403 (The Journal of organic chemistry, 2009) come the findings set out here.

Format in all cases: biochemical
Assay [1] addresses T1, S. pombe Lumazine Synthase (Schizosaccharomyces pombe, UniProt Q9UUB1).
T1 sequence (Q9UUB1 1-159): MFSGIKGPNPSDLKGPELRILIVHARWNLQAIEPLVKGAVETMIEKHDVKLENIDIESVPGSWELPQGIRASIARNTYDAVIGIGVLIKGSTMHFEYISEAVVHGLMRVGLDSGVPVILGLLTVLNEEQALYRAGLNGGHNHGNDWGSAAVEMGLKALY
The assay can be described thus: Lumazine synthase kinetic inhibition assay. The note with it: recombinant S. pombe LS; for kcat (rate constant ES → E + P): fit of the compound's data set; for kcat (rate constant ES → E + P) / Kis (inhibitor dissociation constant, ES + I ⇌ ESI): pH 7.0; for Kis (inhibitor dissociation constant, ES + I ⇌ ESI): substrate 1 varied, 2 constant.

Assay [2] deals with M. tuberculosis Lumazine Synthase (Mycobacterium tuberculosis, UniProt P9WHE9). The note with it: recombinant M. tuberculosis LS; for kcat (rate constant ES → E + P): fit of the compound's data set; for kcat (rate constant ES → E + P) / Kis (inhibitor dissociation constant, ES + I ⇌ ESI): pH 7.0; for Kis (inhibitor dissociation constant, ES + I ⇌ ESI): substrate 1 varied, 2 constant.
M. tuberculosis Lumazine Synthase, sequence (P9WHE9 whole entry): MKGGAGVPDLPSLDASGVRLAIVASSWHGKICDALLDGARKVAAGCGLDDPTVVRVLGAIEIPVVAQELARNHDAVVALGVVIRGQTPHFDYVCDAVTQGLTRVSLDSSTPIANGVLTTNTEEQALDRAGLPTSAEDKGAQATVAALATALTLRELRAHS

The target in assay [3] is M. tuberculosis Riboflavin Synthase (Mycobacterium tuberculosis, UniProt P9WK35). Description: Riboflavin synthase kinetic inhibition assay. The conditions noted are these: recombinant M. tuberculosis RS; for kcat (rate constant ES → E + P): fit of the compound's data set; for kcat (rate constant ES → E + P) / Kis (inhibitor dissociation constant, ES + I ⇌ ESI): pH 7.0.
M. tuberculosis Riboflavin Synthase, sequence (P9WK35 whole entry): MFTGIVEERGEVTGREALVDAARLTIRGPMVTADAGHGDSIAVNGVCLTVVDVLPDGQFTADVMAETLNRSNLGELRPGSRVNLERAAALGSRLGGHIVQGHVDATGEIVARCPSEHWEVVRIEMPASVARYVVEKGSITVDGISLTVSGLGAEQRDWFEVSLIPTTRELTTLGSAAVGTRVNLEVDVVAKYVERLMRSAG
The target of assay [4] is E. coli Riboflavin Synthase (Escherichia coli, UniProt P0AFU8). Description: Riboflavin synthase kinetic inhibition assay. The note with it: recombinant E. coli RS; for kcat (rate constant ES → E + P): fit of the compound's data set; for kcat (rate constant ES → E + P) / Kis (inhibitor dissociation constant, ES + I ⇌ ESI): pH 7.0.
E. coli Riboflavin Synthase, sequence (P0AFU8 whole entry): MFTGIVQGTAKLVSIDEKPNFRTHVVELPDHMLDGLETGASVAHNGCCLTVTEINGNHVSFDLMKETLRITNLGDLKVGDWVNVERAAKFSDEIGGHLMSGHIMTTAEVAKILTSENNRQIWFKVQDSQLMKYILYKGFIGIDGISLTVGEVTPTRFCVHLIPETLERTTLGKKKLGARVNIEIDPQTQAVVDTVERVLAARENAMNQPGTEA

Regarding `O=c1[nH]c(/C=C/c2cc(O)ccc2O)c([N+](=O)[O-])c(=O)[nH]1` [Compound 18, (E)-6-(2,5-Dihydroxystyryl)-5-nitropyrimidine-2,4(1H,3H)-dione], the Mode of inhibition result in assay [1], in assay [2], in assay [3] and in assay [4] was “Uncompetitive” in each case. The “kcat (rate constant ES → E + P)” value in assay [1] came to 0.0245 ± 0.00067 s⁻¹; in assay [2] it was 0.00283 ± 0.00017 s⁻¹; in assay [3], 0.00367 ± 0.00033 s⁻¹; in assay [4] it was 0.085 ± 0.0017 s⁻¹. Further, the “Kis (inhibitor dissociation constant, ES + I ⇌ ESI)” value stood at 53 ± 5 µM in assay [1], 420 ± 168 µM in assay [2], 398 ± 156 µM in assay [3] and 122 ± 10 µM in assay [4].

As to `O=c1[nH]c(/C=C/c2cccc(O)c2O)c([N+](=O)[O-])c(=O)[nH]1` [Compound 17, (E)-6-(2,3-Dihydroxystyryl)-5-nitropyrimidine-2,4(1H,3H)-dione], the Mode of inhibition entry is listed as “Partial” in assay [1], “Mixed” in assay [2], “Partial” in assay [3] and “Mixed” in assay [4]. In addition, the “kcat (rate constant ES → E + P)” value in assay [1] stood at 0.0262 ± 0.00033 s⁻¹; in assay [2] it was 0.006 ± 0.00017 s⁻¹; in assay [3] it was 0.0045 ± 0.00033 s⁻¹; in assay [4] it was 0.085 ± 0.0017 s⁻¹. Further, the “Kis (inhibitor dissociation constant, ES + I ⇌ ESI)” value in assay [1] was found to be 16 ± 3 µM; in assay [2], 81 ± 29 µM; in assay [3], 37 ± 16 µM; in assay [4], 26 ± 4 µM.
